One block for each molecule: values may come before it.
Tests used:
Ephrin type-A receptor 2 [1] = biological target: Ephrin type-A receptor 2 (Homo sapiens, UniProt P29317); experiment: Binding affinity to EphA2 (unknown origin)
[2] = Half life in mouse at 30 mg/kg, iv; format: ADME, organism-based; conditions: in vivo
Ephrin type-B receptor 4 = biological target: T1, Ephrin type-B receptor 4 (Homo sapiens, UniProt P54760); experiment: Binding affinity to Fc-tagged EphB4 (unknown origin) assessed as reduction in ephrin-B2 binding by SPR assay
T1 sequence (P54760 whole entry): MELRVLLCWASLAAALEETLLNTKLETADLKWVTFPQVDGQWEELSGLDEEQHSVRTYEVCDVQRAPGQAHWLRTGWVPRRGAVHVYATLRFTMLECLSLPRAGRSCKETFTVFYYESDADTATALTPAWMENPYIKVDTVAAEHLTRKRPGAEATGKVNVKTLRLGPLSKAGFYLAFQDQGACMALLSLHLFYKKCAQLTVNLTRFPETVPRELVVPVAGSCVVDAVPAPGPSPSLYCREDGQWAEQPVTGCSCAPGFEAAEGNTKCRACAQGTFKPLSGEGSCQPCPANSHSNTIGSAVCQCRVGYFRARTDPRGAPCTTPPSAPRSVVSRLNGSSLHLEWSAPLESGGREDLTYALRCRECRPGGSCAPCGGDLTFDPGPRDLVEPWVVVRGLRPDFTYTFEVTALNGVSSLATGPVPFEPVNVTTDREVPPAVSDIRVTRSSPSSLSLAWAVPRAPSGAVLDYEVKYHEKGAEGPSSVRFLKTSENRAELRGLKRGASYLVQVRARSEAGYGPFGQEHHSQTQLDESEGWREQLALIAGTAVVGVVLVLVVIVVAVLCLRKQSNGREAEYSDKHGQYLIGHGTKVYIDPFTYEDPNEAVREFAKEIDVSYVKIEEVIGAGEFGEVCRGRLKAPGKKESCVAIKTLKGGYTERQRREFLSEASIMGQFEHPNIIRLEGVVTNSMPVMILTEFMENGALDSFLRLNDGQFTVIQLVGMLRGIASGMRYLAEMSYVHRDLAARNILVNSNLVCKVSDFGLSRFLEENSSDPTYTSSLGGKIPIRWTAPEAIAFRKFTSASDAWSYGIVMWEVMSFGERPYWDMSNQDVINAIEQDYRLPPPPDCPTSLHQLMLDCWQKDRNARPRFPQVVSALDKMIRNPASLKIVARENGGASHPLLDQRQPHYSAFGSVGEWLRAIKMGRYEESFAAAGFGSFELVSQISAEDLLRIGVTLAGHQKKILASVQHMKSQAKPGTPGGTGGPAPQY

Ephrin type-A receptor 2 [3] = biological target: T2, Ephrin type-A receptor 2 (Mus musculus, UniProt Q03145); experiment: Binding affinity to histidine-tagged mouse EphA2 Fc fusion protein by SPR assay
T2 sequence (Q03145 whole entry, the tested form may be a part): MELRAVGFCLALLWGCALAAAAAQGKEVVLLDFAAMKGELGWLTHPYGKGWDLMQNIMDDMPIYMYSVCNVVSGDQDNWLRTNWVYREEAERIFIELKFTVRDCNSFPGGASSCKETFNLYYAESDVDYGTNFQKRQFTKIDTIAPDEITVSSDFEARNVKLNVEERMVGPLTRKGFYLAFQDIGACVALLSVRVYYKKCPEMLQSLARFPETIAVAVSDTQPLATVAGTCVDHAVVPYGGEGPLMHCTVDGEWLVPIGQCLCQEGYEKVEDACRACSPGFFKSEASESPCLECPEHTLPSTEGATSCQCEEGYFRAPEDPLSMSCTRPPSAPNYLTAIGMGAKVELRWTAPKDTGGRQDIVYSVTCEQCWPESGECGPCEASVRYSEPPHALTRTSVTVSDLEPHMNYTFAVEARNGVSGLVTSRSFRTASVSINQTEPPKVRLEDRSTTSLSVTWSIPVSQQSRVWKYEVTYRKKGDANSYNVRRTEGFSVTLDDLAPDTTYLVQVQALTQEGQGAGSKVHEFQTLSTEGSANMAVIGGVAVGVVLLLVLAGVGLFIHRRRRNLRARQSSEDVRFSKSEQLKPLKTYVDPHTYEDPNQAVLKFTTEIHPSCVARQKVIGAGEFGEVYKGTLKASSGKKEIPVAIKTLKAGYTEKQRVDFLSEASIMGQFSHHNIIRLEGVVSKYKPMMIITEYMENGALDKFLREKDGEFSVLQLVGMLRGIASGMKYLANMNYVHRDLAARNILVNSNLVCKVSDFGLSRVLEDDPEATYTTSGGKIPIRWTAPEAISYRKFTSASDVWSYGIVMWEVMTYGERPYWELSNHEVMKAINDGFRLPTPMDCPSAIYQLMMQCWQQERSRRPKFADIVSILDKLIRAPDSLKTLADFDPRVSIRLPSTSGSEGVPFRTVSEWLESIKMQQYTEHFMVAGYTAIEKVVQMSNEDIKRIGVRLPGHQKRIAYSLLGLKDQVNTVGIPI

Ephrin type-A receptor 2 [4] = biological target: T2, Ephrin type-A receptor 2; experiment: Displacement of biotinylated ephrinA1-Fc from recombinant mouse EphA2 Fc chimera protein by ELISA

Chain of Ephrin type-A receptor 2 (Homo sapiens, UniProt P29317) (P29317 whole entry): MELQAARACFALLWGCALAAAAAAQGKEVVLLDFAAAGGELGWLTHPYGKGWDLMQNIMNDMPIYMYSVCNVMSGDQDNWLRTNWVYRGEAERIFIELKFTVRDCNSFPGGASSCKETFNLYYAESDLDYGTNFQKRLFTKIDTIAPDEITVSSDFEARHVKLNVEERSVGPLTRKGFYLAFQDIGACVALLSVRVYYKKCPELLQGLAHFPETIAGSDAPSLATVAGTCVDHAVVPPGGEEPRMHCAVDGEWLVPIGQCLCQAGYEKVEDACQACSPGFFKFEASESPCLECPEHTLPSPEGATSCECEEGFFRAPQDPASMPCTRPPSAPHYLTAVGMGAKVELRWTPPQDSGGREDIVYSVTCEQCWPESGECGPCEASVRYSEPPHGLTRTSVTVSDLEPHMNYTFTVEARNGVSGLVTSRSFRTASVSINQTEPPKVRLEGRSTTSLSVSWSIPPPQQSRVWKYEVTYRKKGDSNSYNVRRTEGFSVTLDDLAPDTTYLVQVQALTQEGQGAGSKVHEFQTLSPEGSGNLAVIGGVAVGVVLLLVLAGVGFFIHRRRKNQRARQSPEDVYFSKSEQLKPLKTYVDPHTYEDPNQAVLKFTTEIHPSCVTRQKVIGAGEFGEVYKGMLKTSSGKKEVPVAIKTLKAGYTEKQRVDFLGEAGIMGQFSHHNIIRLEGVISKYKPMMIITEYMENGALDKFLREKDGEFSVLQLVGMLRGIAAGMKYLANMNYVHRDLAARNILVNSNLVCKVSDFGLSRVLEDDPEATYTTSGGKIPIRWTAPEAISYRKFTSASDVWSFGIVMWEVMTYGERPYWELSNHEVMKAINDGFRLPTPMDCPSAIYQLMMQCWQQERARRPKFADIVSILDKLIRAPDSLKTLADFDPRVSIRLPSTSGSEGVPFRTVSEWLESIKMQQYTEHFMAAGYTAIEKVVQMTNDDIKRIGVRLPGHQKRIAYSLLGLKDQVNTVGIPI

Ki (Ephrin type-A receptor 2 [1]): > 15000 nM
Molecule: C[C@H](CCC(=O)N[C@H](CC(=O)O)Cc1c[nH]c2ccccc12)[C@H]1CC[C@H]2[C@@H]3CC[C@@H]4CCCC[C@]4(C)[C@H]3CC[C@]12C

half-life [2]: > 2 h
Molecule: CCCC[C@H](NC(=O)[C@@H]1CCCN1C(=O)[C@@H](NC(=O)[C@H](CO)NC(=O)[C@H](CC(=O)O)NC(=O)[C@@H]1CCCN1C(=O)[C@H](Cc1ccc(O)cc1)NC(=O)[C@H](C)NC(=O)[C@H](CO)NC(=O)COc1ccc(F)c(Cl)c1)C(C)C)C(=O)N[C@@H](CCO)C(=O)N[C@@H](CO)C(=O)N[C@@H](CCCCNC(=O)CCCc1cn(CCCCCOC(=O)COCC(=O)O[C@@H](C(=O)O[C@H]2C[C@@]3(O)[C@@H](OC(=O)c4ccccc4)[C@@H]4[C@]5(OC(C)=O)CO[C@@H]5C[C@H](O)[C@@]4(C)C(=O)[C@H](OC(C)=O)C(=C2C)C3(C)C)[C@@H](NC(=O)c2ccccc2)c2ccccc2)nn1)C(=O)O

Molecule: H-TNYLFSPNGPIARAW-OH
Kd (Ephrin type-B receptor 4): 2 nM

Molecule: CC(C)C[C@H](NC(=O)[C@H](Cc1c[nH]c2ccccc12)NC(=O)[C@@H](N)CO)C(=O)N[C@@H](C)C(=O)N[C@@H](Cc1ccc(O)cc1)C(=O)N1CCC[C@H]1C(=O)NCC(=O)N[C@@H](C)C(=O)N[C@H](C(=O)N[C@@H](CO)C(=O)N[C@@H](Cc1ccc(O)cc1)C(=O)N[C@@H](CCCN=C(N)N)C(=O)O)C(C)C
Kd (Ephrin type-A receptor 2 [3]): 700 nM

IC50 (Ephrin type-A receptor 2 [4]): 57000 nM
Molecule: C[C@H](CCC(=O)O)[C@H]1CC[C@H]2[C@@H]3CC[C@@H]4C[C@H](O)CC[C@]4(C)[C@H]3CC[C@]12C [LITHOCHOLIC ACID]
